Results from US11566007B2, “Ras inhibitors” (Revolution Medicines, Inc., priority 2019, dated 2023).
Where “and” joins values, the source holds several entries; their conditions need not be identical. Equal entries are not always repeated.

Legend:
[1] = target: K-Ras G12C (Homo sapiens (Human), UniProt P01116+P62937, G12C); assay: Ras-Raf (BRAF RBD) disruption / FRET / MOA assay, KRAS G12C; assay type: biochemical; conditions: KRAS G12C; Ras-Raf disruption/FRET/MOA assay; read-out: IC50* KRAS G12C FRET data
Method in brief: (§1)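 Ternary complex formation (Ras–compound–cyclophilin A) displacing BRAF RBD, monitored by TR-FRET. Three hours at 25° C with compound (top 30 μM final), then 1.5 h with the labelled antibodies. Lower ratio than DMSO indicates disruption; IC50 reported.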

[2] = target: KRAS G12V (Homo sapiens (Human), UniProt P01116+P62937, G12V); assay: Ras-Raf (BRAF RBD) disruption / FRET / MOA assay, KRAS G12V; assay type: biochemical; conditions: read-out: IC50* KRAS G12V FRET data
Method in brief: as §1

[3] = target: NRAS G12C (Homo sapiens (Human), UniProt P01111+P62937, G12C); assay: Ras-Raf (BRAF RBD) disruption / FRET / MOA assay, NRAS G12C; assay type: biochemical; conditions: read-out: IC50* NRAS G12C FRET data
Procedure: (§2) The purpose of this biochemical assay is to measure the ability of test compounds to facilitate ternary complex formation between a nucleotide-loaded Ras isoform and cyclophilin A; the resulting ternary complex disrupts binding to a BRAF^RBD construct, inhibiting Ras signaling through a RAF effector.
(§3) Compound is present in plate wells as a 10-point 3-fold dilution series starting at a final concentration of 30 μM. After incubation at 25° C. for 3 hours, a mixture of Anti-His Eu-W1024 and anti-GST allophycocyanin is then added to assay sample wells at final concentrations of 10 nM and 50 nM, respectively, and the reaction incubated for an additional 1.5 hours. […] Compounds that facilitate disruption of a Ras:RAF complex are identified as those eliciting a decrease in the TR-FRET ratio relative to DMSO control wells.
This protocol may also be executed substituting other Ras proteins or nucleotides. […]

[4] = target: KRAS G12S (Homo sapiens (Human), UniProt P01116+P62937, G12S); assay: Ras-Raf (BRAF RBD) disruption / FRET / MOA assay, KRAS G12S; assay type: biochemical; conditions: Ras-Raf disruption/FRET/MOA assay; class symbols; read-out: KRAS G12S FRET data IC50
Method in brief: as §1

[5] = system: NCI-H358 cells (K-Ras G12C); assay: Potency assay: pERK in NCI-H358 cells; assay type: cell-based, human; conditions: Homo sapiens, NCI-H358; H358 KRAS G12C; read-out: pERK EC50
Method in brief: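 4 h cpd, 37 °C; 10-pt 3-fold series, 10 mM DMSO top stock, duplicates. Readout pERK: AlphaLISA SureFire Ultra or In-Cell Western (IR-800CW secondary, DRAQ5 DNA stain). IC50, 4-PL fit vs log conc.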

[6] = target: KRAS G12D (Homo sapiens (Human), UniProt P01116+P62937, G12D); assay: Ras-Raf (BRAF RBD) disruption / FRET / MOA assay, KRAS G12D; assay type: biochemical; conditions: Ras-Raf disruption/FRET/MOA assay; class symbols; read-out: KRAS G12D FRET data IC50
Method in brief: as §1

[7] = target: K-Ras G13C (Homo sapiens (Human), UniProt P01116+P62937, G13C); assay: Ras-Raf (BRAF RBD) disruption / FRET / MOA assay, KRAS G13C; assay type: biochemical; conditions: KRAS G13C; Ras-Raf disruption/FRET/MOA assay; read-out: IC50* KRAS G13C FRET data
Method in brief: as §1

[8] = target: KRAS G13D (Homo sapiens (Human), UniProt P01116+P62937, G13D); assay: Ras-Raf (BRAF RBD) disruption / FRET / MOA assay, KRAS G13D; assay type: biochemical; conditions: read-out: IC50* KRAS G13D FRET data
Procedure: as §2, §3
This protocol may also be executed substituting other Ras proteins or nucleotides.
The purpose of this biochemical assay was to measure the ability of test compounds to facilitate ternary complex formation between a nucleotide-loaded K-Ras isoform and Cyclophilin A; the resulting ternary complex disrupts binding to a BRAF^RBD construct, inhibiting K-Ras signaling through a RAF effector. Data is reported as IC50 values.
Compound was present in plate wells as a 10-point 3-fold dilution series starting at a final concentration of 30 μM. After incubation at 25° C. for 3 hours, a mixture of Anti-His Eu-W1024 and anti-GST allophycocyanin was then added to assay sample wells at final concentrations of 10 nM and 50 nM, respectively, and the reaction incubated for an additional 1.5 hours. […] Compounds that facilitate disruption of a K-Ras:RAF complex were identified as those eliciting a decrease in the TR-FRET ratio relative to DMSO control wells.

[9] = target: KRAS WT (Homo sapiens (Human), UniProt P01116+P62937); assay: Ras-Raf (BRAF RBD) disruption / FRET / MOA assay, KRAS WT; assay type: biochemical; conditions: read-out: IC50* KRAS WT FRET data
Method in brief: as §1

Chain of NRAS G12C (P01111 whole entry G12C, canonical isoform): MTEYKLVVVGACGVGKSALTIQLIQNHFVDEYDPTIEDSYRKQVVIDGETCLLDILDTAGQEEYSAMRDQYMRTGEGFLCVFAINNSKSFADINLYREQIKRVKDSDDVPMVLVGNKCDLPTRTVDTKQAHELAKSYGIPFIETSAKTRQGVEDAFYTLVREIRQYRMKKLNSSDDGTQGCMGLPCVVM
Chain of NRAS G12C (P62937 whole entry, canonical isoform): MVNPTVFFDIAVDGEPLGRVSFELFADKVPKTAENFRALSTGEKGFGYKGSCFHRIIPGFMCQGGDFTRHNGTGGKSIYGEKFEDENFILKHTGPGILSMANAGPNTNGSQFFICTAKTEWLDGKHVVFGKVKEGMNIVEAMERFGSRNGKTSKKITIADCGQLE
Chain of KRAS G12S (P01116-2 other isoform, or with tags, fused parts or gaps G12S): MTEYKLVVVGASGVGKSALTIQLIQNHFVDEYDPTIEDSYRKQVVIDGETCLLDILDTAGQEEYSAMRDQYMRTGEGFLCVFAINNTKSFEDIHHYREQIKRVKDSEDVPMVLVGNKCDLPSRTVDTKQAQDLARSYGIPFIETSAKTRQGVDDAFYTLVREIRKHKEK
Chain of KRAS G12S (P62937 whole entry): as the sequence (P62937 whole entry, canonical isoform) above
Chain of KRAS WT (P01116-2 other isoform, or with tags, fused parts or gaps): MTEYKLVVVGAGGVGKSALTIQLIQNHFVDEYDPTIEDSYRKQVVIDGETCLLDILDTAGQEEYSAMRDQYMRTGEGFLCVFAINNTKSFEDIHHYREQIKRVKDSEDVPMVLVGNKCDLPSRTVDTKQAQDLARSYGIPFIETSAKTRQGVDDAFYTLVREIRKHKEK
Chain of KRAS WT (P62937 whole entry): as the sequence (P62937 whole entry, canonical isoform) above
Chain of KRAS G12D (P01116-2 other isoform, or with tags, fused parts or gaps G12D): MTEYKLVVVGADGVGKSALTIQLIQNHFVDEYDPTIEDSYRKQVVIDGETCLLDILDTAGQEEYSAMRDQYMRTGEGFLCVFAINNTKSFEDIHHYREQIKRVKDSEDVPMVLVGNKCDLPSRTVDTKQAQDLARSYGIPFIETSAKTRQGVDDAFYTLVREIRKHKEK
Chain of KRAS G12D (P62937 whole entry): as the sequence (P62937 whole entry, canonical isoform) above
Chain of KRAS G12V (P01116-2 other isoform, or with tags, fused parts or gaps G12V): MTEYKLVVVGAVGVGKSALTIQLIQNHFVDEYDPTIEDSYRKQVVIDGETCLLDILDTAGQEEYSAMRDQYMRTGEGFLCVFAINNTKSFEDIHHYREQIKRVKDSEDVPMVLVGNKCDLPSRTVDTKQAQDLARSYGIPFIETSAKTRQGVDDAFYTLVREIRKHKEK
Chain of KRAS G12V (P62937 whole entry): as the sequence (P62937 whole entry, canonical isoform) above
Chain of KRAS G13D (P01116-2 other isoform, or with tags, fused parts or gaps G13D): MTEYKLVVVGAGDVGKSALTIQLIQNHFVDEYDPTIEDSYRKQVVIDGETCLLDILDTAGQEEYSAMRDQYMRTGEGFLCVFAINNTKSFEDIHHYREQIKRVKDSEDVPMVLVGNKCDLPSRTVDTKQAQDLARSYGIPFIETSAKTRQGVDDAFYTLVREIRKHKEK
Chain of KRAS G13D (P62937 whole entry): as the sequence (P62937 whole entry, canonical isoform) above
Chain of K-Ras G12C (P01116-2 other isoform, or with tags, fused parts or gaps G12C): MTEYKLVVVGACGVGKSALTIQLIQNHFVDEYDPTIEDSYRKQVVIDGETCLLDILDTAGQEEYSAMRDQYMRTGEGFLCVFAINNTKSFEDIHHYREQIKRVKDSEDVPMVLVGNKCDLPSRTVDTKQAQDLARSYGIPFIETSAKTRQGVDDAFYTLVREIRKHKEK
Chain of K-Ras G12C (P62937 whole entry): as the sequence (P62937 whole entry, canonical isoform) above
Chain of K-Ras G13C (P01116-2 other isoform, or with tags, fused parts or gaps G13C): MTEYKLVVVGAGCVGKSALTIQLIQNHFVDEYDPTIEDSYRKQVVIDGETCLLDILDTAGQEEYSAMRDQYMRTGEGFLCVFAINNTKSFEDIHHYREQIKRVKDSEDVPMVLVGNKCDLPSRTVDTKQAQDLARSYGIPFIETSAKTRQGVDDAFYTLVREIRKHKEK
Chain of K-Ras G13C (P62937 whole entry): as the sequence (P62937 whole entry, canonical isoform) above

CCn1c(-c2cccnc2[C@H](C)OC)c2c3cc(ccc31)-c1cccc(c1)C[C@H](NC(=O)[C@H](C(C)C)N(C)C(=O)[C@H]1CCN(C(=O)/C=C/CN(C)C)C1)C(=O)N1CCC[C@H](N1)C(=O)OCC(C)(C)C2 (atropisomer, axis not shown) [Example A187]
IC50 [1]: 0.01 to 0.1 µM and 1 to 10 µM
IC50 [2]: 1 to 10 µM and > 10 µM
IC50 [3]: 0.01 to 0.1 µM and 1 to 10 µM
IC50 [4]: 1 to 10 µM and > 10 µM
EC50 [5]: < 5 µM
IC50 [6]: > 10 µM
IC50 [7]: > 10 µM and 1 to 10 µM
IC50 [8]: 1 to 10 µM and > 10 µM
IC50 [9]: 1 to 10 µM and > 10 µM

CCn1c(-c2cccnc2[C@H](C)OC)c2c3cc(ccc31)-c1cccc(c1)C[C@H](NC(=O)[C@H](C(C)C)N(C)C(=O)[C@H]1CCN(C(=O)C#CCN3CCOCC3)C1)C(=O)N1CCC[C@H](N1)C(=O)OCC(C)(C)C2 (atropisomer, axis not shown) [Example A191]
IC50 [1]: 0.01 to 0.1 µM and 0.1 to 1 µM
IC50 [2]: 1 to 10 µM and > 10 µM
IC50 [3]: 0.01 to 0.1 µM and 1 to 10 µM
IC50 [4]: > 10 µM
EC50 [5]: < 5 µM
IC50 [6]: > 10 µM
IC50 [7]: 1 to 10 µM and > 10 µM
IC50 [8]: > 10 µM
IC50 [9]: > 10 µM

C=CC(=O)N1CC[C@H](C(=O)N(C)[C@H](C(=O)N[C@H]2Cc3cc(O)cc(c3)-c3ccc4c(c3)c(c(-c3cccnc3[C@@H](OC)C3CC3)n4CC)CC(C)(C)COC(=O)[C@@H]3CCCN(N3)C2=O)C(C)C)C1 (atropisomer, axis not shown) [Example A206]
IC50 [1]: 0.1 to 1 µM
IC50 [2]: 0.1 to 1 µM
IC50 [3]: 0.1 to 1 µM
IC50 [4]: 0.1 to 1 µM
EC50 [5]: < 5 µM
IC50 [6]: > 10 µM
IC50 [7]: 1 to 10 µM
IC50 [8]: 1 to 10 µM
IC50 [9]: 1 to 10 µM

CCn1c(-c2cccnc2[C@H](C)OC)c2c3cc(ccc31)-c1cc(O)cc(c1)C[C@H](NC(=O)[C@H](C(C)C)N(C)C(=O)c1ccc(NC(=O)/C=C/CN(C)C)cn1)C(=O)N1CCC[C@H](N1)C(=O)OCC(C)(C)C2 (atropisomer, axis not shown) [Example A251]
IC50 [1]: 0.01 to 0.1 µM
IC50 [2]: 0.1 to 1 µM and 1 to 10 µM
IC50 [3]: 0.01 to 0.1 µM
IC50 [4]: 0.1 to 1 µM and 1 to 10 µM
EC50 [5]: < 5 µM
IC50 [6]: 1 to 10 µM and > 10 µM
IC50 [7]: 0.01 to 0.1 µM and < 0.01 µM
IC50 [8]: 0.1 to 1 µM and 1 to 10 µM
IC50 [9]: 0.1 to 1 µM and 1 to 10 µM

CCn1c(-c2cccnc2[C@H](C)OC)c2c3cc(ccc31)-c1cc(O)cc(c1)C[C@H](NC(=O)[C@H](C(C)C)N(C)C(=O)C1CCN(C(=O)/C=C/CN(C)C)CC1)C(=O)N1CCC[C@H](N1)C(=O)OCC(C)(C)C2 (atropisomer, axis not shown) [Example A261]
IC50 [1]: 0.01 to 0.1 µM and 0.1 to 1 µM
IC50 [2]: 0.1 to 1 µM and 1 to 10 µM
IC50 [3]: 0.01 to 0.1 µM and 0.1 to 1 µM
IC50 [4]: 0.1 to 1 µM
EC50 [5]: < 5 µM
IC50 [6]: 1 to 10 µM and 0.1 to 1 µM
IC50 [7]: 0.01 to 0.1 µM and 0.1 to 1 µM
IC50 [8]: 0.1 to 1 µM and 0.01 to 0.1 µM
IC50 [9]: 1 to 10 µM and 0.01 to 0.1 µM

C=CC(=O)N1CC[C@H](C(=O)N(C)[C@H](C(=O)N[C@H]2Cc3nc(cs3)-c3ccc4c(c3)c(c(-c3cccnc3[C@H](C)OC)n4CC)CC(C)(C)COC(=O)[C@@H]3CCCN(N3)C2=O)C(C)C)C1 (atropisomer, axis not shown) [Example A279]
IC50 [1]: 1 µM to 10 µM and > 10 µM (2×)
IC50 [2]: > 10 µM
IC50 [3]: 1 µM to 10 µM and > 10 µM (2×)
IC50 [4]: > 10 µM
EC50 [5]: < 5 µM
IC50 [6]: > 10 µM
IC50 [7]: > 10 µM (2×) and 1 µM to 10 µM
IC50 [8]: > 10 µM
IC50 [9]: > 10 µM

C=CS(=O)(=O)N1CC[C@H](C(=O)N(C)[C@H](C(=O)N[C@H]2Cc3nc(cs3)-c3ccc4c(c3)c(c(-c3cccnc3[C@H](C)OC)n4CC)CC(C)(C)COC(=O)[C@@H]3CCCN(N3)C2=O)C(C)C)C1 (atropisomer, axis not shown) [Example A283]
IC50 [1]: 10 nM to 100 nM and 1 µM to 10 µM (2×)
IC50 [2]: 1 µM to 10 µM and > 10 µM (2×)
IC50 [3]: 0.1 to 1 µM and 1 to 10 µM and > 10 µM
IC50 [4]: 1 µM to 10 µM and > 10 µM (2×)
EC50 [5]: < 5 µM
IC50 [6]: > 10 µM
IC50 [7]: 10 nM to 100 nM and 1 µM to 10 µM (2×)
IC50 [8]: > 10 µM
IC50 [9]: 1 µM to 10 µM and > 10 µM (2×)

C=CC(=O)N1CC2(CCN([C@H](C(=O)N[C@H]3Cc4cc(O)cc(c4)-c4ccc5c(c4)c(c(-c4cccnc4[C@H](C)OC)n5CC)CC(C)(C)COC(=O)[C@@H]4CCCN(N4)C3=O)C(C)C)C2=O)C1 (atropisomer, axis not shown) [Example A294]
IC50 [1]: < 0.01 µM
IC50 [2]: 0.1 to 1 µM
IC50 [3]: < 0.01 µM
IC50 [4]: 0.01 to 0.1 µM
EC50 [5]: < 5 µM
IC50 [6]: 0.1 to 1 µM
IC50 [7]: < 0.01 µM
IC50 [8]: 0.01 to 0.1 µM
IC50 [9]: 0.01 to 0.1 µM

CCn1c(-c2cccnc2[C@H](C)OC)c2c3cc(ccc31)-c1cccc(c1)C[C@H](NC(=O)[C@H](C(C)C)N(C)C(=O)[C@H]1CCN(C(=O)C#CC(C)(C)N3CCC(F)(F)C3)C1)C(=O)N1CCC[C@H](N1)C(=O)OCC(C)(C)C2 (atropisomer, axis not shown) [Example A325]
IC50 [1]: 1 to 10 µM
IC50 [2]: 1 to 10 µM
IC50 [3]: 1 to 10 µM
IC50 [4]: 1 to 10 µM
EC50 [5]: < 5 µM
IC50 [6]: > 10 µM
IC50 [7]: 1 to 10 µM
IC50 [8]: > 10 µM
IC50 [9]: > 10 µM

CCn1c(-c2cccnc2[C@H](C)OC)c2c3cc(ccc31)-c1cc(cc(C(F)F)c1)C[C@H](NC(=O)[C@H](C(C)C)N(C)C(=O)[C@H]1CCN(C(=O)C#CC(C)(C)N3CCC3)C1)C(=O)N1CCC[C@H](N1)C(=O)OCC(C)(C)C2 (atropisomer, axis not shown) [Example A466]
IC50 [1]: 0.01 to 0.1 µM
IC50 [2]: 1 to 10 µM
IC50 [3]: 0.01 to 0.1 µM
IC50 [4]: 1 to 10 µM
EC50 [5]: < 5 µM
IC50 [6]: > 10 µM
IC50 [7]: 0.1 to 1 µM
IC50 [8]: 1 to 10 µM
IC50 [9]: 1 to 10 µM

C=CC(=O)N1CC[C@@H](C(=O)N(C)[C@H](C(=O)N[C@H]2Cc3cccc(c3)-c3ccc4c(c3)c(c(-c3cccnc3[C@H](C)OC)n4CC)CC(C)(C)COC(=O)[C@@H]3CCCN(N3)C2=O)C(C)C)C1 (atropisomer, axis not shown) [Example A488]
IC50 [1]: 0.1 to 1 µM
IC50 [2]: 1 to 10 µM
IC50 [3]: 0.1 to 1 µM
IC50 [4]: 1 to 10 µM
EC50 [5]: < 5 µM
IC50 [6]: 1 to 10 µM
IC50 [7]: 0.1 to 1 µM
IC50 [8]: 1 to 10 µM
IC50 [9]: 1 to 10 µM
